Assay results: US20180271808A1, “METHODS OF REDUCING CHEMORESISTANCE AND TREATING CANCER” (Mitchell Woods Pharmaceuticals, Inc., priority 2015, published 2018)
Where two headings read alike, the source gives them in different places.

What was measured:
[1] = tested on: GPR55 (PANC-1 cells); experiment: Western blot of cancer biomarker and MDR proteins in PANC-1 cell lysates; conditions: for AM251-induced increase in BCRP expression: PANC-1, antagonist 1 μM before AM251 1 μM
Method: (§5) In the first series of experiments, PANC-1 cells were incubated with media containing vehicle (0.01% DMSO) or MNF (10, 100, 500 and 1000 nM) for 24 hours. The medium was removed, and cells were collected and processed for immunoblot analysis. […] Cell lysates were processed for immunoblot analysis, focusing on the expression of selected cancer cell biomarkers. In the third series of experiments, serum-starved PANC-1 cells were pretreated with vehicle (0.01% DMSO), 1 μM MNF, or 1 μM CID for 10 minutes followed by a 20 minute incubation with and without 1 AM251. Cell lysates were processed for immunoblot analysis and the levels of phospho-active (Ser473) and total forms of AKT were determined. All experiments were repeated three times on three separate days, unless stated otherwise.
Cells were lysed in radioimmuno precipitation buffer containing EGTA and EDTA (Boston BioProducts, Ashland, Mass.) supplemented with protease inhibitor cocktail (Sigma-Aldrich). Protein concentration in clarified lysates was determined using the bicinchoninic acid reagent (Thermo Fisher Scientific). […] Western blots were performed according to standard methods, which involved a blocking step in Tris-buffered saline/0.1% Tween-20 (TBS-T) supplemented with 5% non-fat milk and incubation with primary antibodies of interest. All membrane-bound primary antibodies were detected with horseradish peroxidase-conjugated secondary antibodies (Santa Cruz Biotechnology, Dallas, Tex.) and visualized by enhanced chemiluminescence (ECL Plus, GE Healthcare, Piscataway, N.J.). Quantification of the protein bands was performed by volume densitometry using ImageJ software (National Institutes of Health, Bethesda, Md.) and normalization to β-actin or Lamin A/C. […] The antibodies were used at the dilution recommended by the manufacturers.

[2] = tested on: phospho-PKM2 (Ser37) in PANC-1 cells; experiment: Immunofluorescence confocal measurement of nuclear phospho-PKM2; assay type: cell-based, human; conditions: PANC-1, 1 μM 10 minutes, basal and after AM251 stimulation
Method: Measurement of nuclear phospho-PKM2. PANC-1 cells were seeded on Lab-Tek II CC2 chamber slides (Thermo Scientific Nunc, Rochester, N.Y.) and grown until they reached >70% confluence. […] The GPR55 agonist AM251 (1 μM) was added for 20 minutes where indicated. Cells were washed twice with PBS, fixed with 4% (v/v) paraformaldehyde (Sigma-Aldrich) in PBS for 20 minutes at room temperature, followed by 3×PBS washes and permeabilization with 0.1% Triton X-100 (Sigma-Aldrich) for 15 minutes. Next, the cells were incubated with 10% goat serum for 1 hour, followed by overnight incubation with rabbit polyclonal anti-phospho-PKM2 antibody (Ser37, 1:200) at 4° C. After 3×PBS washes, Alexa Fluor 488-conjugated goat anti-rabbit antibody (Invitrogen; 1:1000) was added to the slides for 2 hours at room temperature. The slides were washed with PBS and mounted in Prolong Gold antifade mounting medium containing DAPI (4′,6-diamidino-2-phenylindole) (Invitrogen) for nuclear counterstaining. The slides were cured for 24 hours at room temperature in the dark, after which images were acquired with a Zeiss LSM 710 confocal microscope using Carl Zeiss LSM software (Thorn-wood, NY). ImageJ software was used to quantify the changes in the nuclear pool of phospho-PKM2 levels.

[3] = tested on: HIF-1α, phospho-PKM2 (Ser37), phospho-β-catenin (Tyr333) in PANC-1 nuclear extracts; experiment: Western blot of nuclear translocation of cancer biomarkers in PANC-1 nuclear extracts; assay type: cell-based, human; conditions: PANC-1, 1 μM, 10 minutes, with and without AM251 1 μM 20 minutes
Method: Nuclear protein extraction was carried out using a NE-PER Kit followed by the determination of the levels of HIF-1α and phospho-active forms of β-catenin (Tyr333) and PKM2 (Ser37) by immunoblotting. The same experiment was repeated three times on three separate days.
Cells were lysed in radioimmuno precipitation buffer containing EGTA and EDTA (Boston BioProducts, Ashland, Mass.) supplemented with protease inhibitor cocktail (Sigma-Aldrich). Protein concentration in clarified lysates was determined using the bicinchoninic acid reagent (Thermo Fisher Scientific). Proteins (20 μg/well) were separated on 4-12% precast gels (Invitrogen, Carlsbad, Calif.) using SDS-polyacrylamide gel electrophoresis under reducing conditions and then electrophoretically transferred onto polyvinylidenefluoride membrane (Invitrogen). […] All membrane-bound primary antibodies were detected with horseradish peroxidase-conjugated secondary antibodies (Santa Cruz Biotechnology, Dallas, Tex.) and visualized by enhanced chemiluminescence (ECL Plus, GE Healthcare, Piscataway, N.J.). Quantification of the protein bands was performed by volume densitometry using ImageJ software (National Institutes of Health, Bethesda, Md.) and normalization to β-actin or Lamin A/C. […]

[4] = tested on: Pgp, BCRP in PANC-1 nuclear extracts; experiment: Immunoblot of Pgp and BCRP in PANC-1 nuclear extracts; assay type: cell-based, human; conditions: MNF 0.5 and 1 μM, 24 hours
Method: Values were normalized to PANC-1 cells treated with 0.01% DMSO as control. Data are expressed as mean±SD from 3 independent experiments. FIG. 5C presents fluorescence imaging of intracellular doxorubicin in PANC-1 cells pretreated with MNF (1 μM) for 24 hours and followed with 0.125 μM of doxorubicin treatment for 2 hours. The upper panel of FIG. 5D presents representative immunoblot depicting protein levels of Pgp, BCRP, and lamin A/C in PANC-1 nuclear extracts after cell treatment with 0.5 and 1 μM of MNF for 24 hours. In the lower panel of FIG. 5D, protein bands were quantified by densitometry and the data normalized to lamin A/C levels and plotted relative to cells treated with 0.01% DMSO as control.
Cells were lysed in radioimmuno precipitation buffer containing EGTA and EDTA (Boston BioProducts, Ashland, Mass.) supplemented with protease inhibitor cocktail (Sigma-Aldrich). Protein concentration in clarified lysates was determined using the bicinchoninic acid reagent (Thermo Fisher Scientific). […] All membrane-bound primary antibodies were detected with horseradish peroxidase-conjugated secondary antibodies (Santa Cruz Biotechnology, Dallas, Tex.) and visualized by enhanced chemiluminescence (ECL Plus, GE Healthcare, Piscataway, N.J.). […]

[5] = tested on: MCF-7 cells; experiment: [3H]-thymidine incorporation (proliferation) in MCF-7 cells; assay type: cell-based, human; conditions: MCF-7 (low GPR55), MNF 24 hours
Method: (§1) [^3H]-Thymidine incorporation studies. Cells were seeded in 24-well plates at 2.5×10^4 cells per well and grown for 24 hours at 37° C. The effect of MNF (0-10 μM) on [^3H]-thymidine incorporation into PANC-1, MDA-MB-231, and MCF-7 cells was investigated following procedures previously described in Paul, et al., Cannabinoid receptor activation correlates with the proapoptotic action of the β2-adrenergic agonist (R,R′)-4-methoxy-1-naphthylfenoterol in HepG2 hepatocarcinoma cells, J. Pharmacol. Exp. Ther., vol. 343, pgs 157-166 (2012); and Paul, et al., (R,R′)-4′-methoxy-1-naphthylfenoteroltargets GPR55-mediated ligand internalization and impairs cancer cellmotility, Biochem. Pharmacol., vol. 87, pgs 547-561 (2014). The effect of MNF on doxorubicin cytotoxicity in PANC-1 cells was measured using [^3H]-thymidine incorporation. In these studies, the cells were incubated with either fresh medium containing vehicle (0.01% DMSO) or MNF (1 μM) for 24 hours. The spent media was removed and replaced with fresh media supplemented with doxorubicin (0-10 μM) and the cells incubated for an additional 24 hours. [^3H]-Thymidine (1 μCi per well) incorporation into DNA was then performed for 16 hours. Cells were washed with PBS, lysed in 600 μt of 0.1 N NaOH, and the radioactivity was measured by liquid scintillation counting. Three independent experiments were conducted on separate days. […]

[6] = tested on: AKT phosphorylation (PANC-1 cells); experiment: Western blot of phospho-active (Ser473) and total AKT in PANC-1 cells; conditions: PANC-1, 1 μM 10 minutes, basally and after AM251 20 minutes
Method: as §5

[7] = tested on: PANC-1 cells; experiment: [3H]-thymidine incorporation (proliferation / cytotoxicity) in PANC-1 cells; assay type: cell-based, human; conditions: for IC50: Homo sapiens; for fold decrease in calculated IC50 by MNF pretreatment: PANC-1, MNF 1 μM 24 hours pretreatment
Method: (§2) [^3H]-Thymidine incorporation studies. Cells were seeded in 24-well plates at 2.5×10^4 cells per well and grown for 24 hours at 37° C. The effect of MNF (0-10 μM) on [^3H]-thymidine incorporation into PANC-1, MDA-MB-231, and MCF-7 cells was investigated following procedures previously described in Paul, et al., Cannabinoid receptor activation correlates with the proapoptotic action of the β2-adrenergic agonist (R,R′)-4-methoxy-1-naphthylfenoterol in HepG2 hepatocarcinoma cells, J. Pharmacol. Exp. Ther., vol. 343, pgs 157-166 (2012); and Paul, et al., (R,R′)-4′-methoxy-1-naphthylfenoteroltargets GPR55-mediated ligand internalization and impairs cancer cellmotility, Biochem. Pharmacol., vol. 87, pgs 547-561 (2014). The effect of MNF on doxorubicin cytotoxicity in PANC-1 cells was measured using [^3H]-thymidine incorporation. In these studies, the cells were incubated with either fresh medium containing vehicle (0.01% DMSO) or MNF (1 μM) for 24 hours. The spent media was removed and replaced with fresh media supplemented with doxorubicin (0-10 μM) and the cells incubated for an additional 24 hours. [^3H]-Thymidine (1 μCi per well) incorporation into DNA was then performed for 16 hours. Cells were washed with PBS, lysed in 600 μt of 0.1 N NaOH, and the radioactivity was measured by liquid scintillation counting. Three independent experiments were conducted on separate days. Similar experiments were conducted to investigate the effect of MNF on the cytotoxicity of gemcitabine (0-10 μM) in PANC-1 cells. The effects of MNF (1 μM) on the cytotoxicity of doxorubicinin MDA-MB-231 cells and of MNF (0.01 μM) on the cytotoxicity of doxorubicin in U87MG cells were investigated using the protocol described above.
(§3) Sigmoidal dose-response curves (IC50 curves) were determined using the ‘nonlinear regression (curve fit)’ model contained within the Prism 4 software package (GraphPad Software, Inc., La Jolla, Calif.) running on a personal computer. For immunoblot analyses, statistical comparisons between treated and control groups were performed using unpaired Student's t-tests. Data are expressed as relative fold change ±standard deviation. P values ≤0.05 were considered significant.

[8] = tested on: PANC-1 cells; experiment: Intracellular uptake of doxorubicin (fluorescence imaging) in PANC-1 cells; assay type: cell-based, human; conditions: PANC-1, MNF 1 μM 24 hours, then doxorubicin 0.125 μM 2 hours, vs control cells
Method: (§4) PANC-1 and MDA-MB-231 cells were seeded on Lab-Tek II CC2 chamber slides and grown until they reached >70% confluence. The original media was removed and cells were incubated in fresh media supplemented with vehicle (0.01% DMSO) or 1 μM MNF for 24 hours, after which doxorubicin (0.125 μM) was added for an additional 2 hours. The cells were washed with PBS and the images were acquired with a Zeiss axiovert 200 microscope using standard FITC filter (#09 filter set) and Carl Zeiss LSM software. ImageJ software was used to quantify the changes in the nuclear accumulation of doxorubicin defined as ring-shaped regions of interest (ROI).

[9] = tested on: MDA-MB-231 breast cancer cells; experiment: [3H]-thymidine incorporation (proliferation / cytotoxicity) in MDA-MB-231 cells; assay type: cell-based, human; conditions: for IC50: Homo sapiens
Method: as §2, §3

[10] = tested on: MDA-MB-231 cells; experiment: Intracellular uptake of doxorubicin (fluorescence imaging) in MDA-MB-231 cells; assay type: cell-based, human; conditions: MDA-MB-231, MNF 1 μM 24 hours, then doxorubicin 0.125 μM 2 hours, vs control cells
Method: as §4

[11] = tested on: U87MG glioblastoma cells; experiment: [3H]-thymidine incorporation (doxorubicin cytotoxicity) in U87MG cells; assay type: cell-based; conditions: Homo sapiens, U-87 MG
Method: as §1, with “The spent media was removed and replaced with fresh media supplemented with doxorubicin (0-10 μM) and the cells incubated for an additional 24 hours. [^3H]-Thymidine (1 μCi per well) incorporation into DNA was then performed for 16 hours.” left out, “counting.” for “counting. Three independent experiments were conducted on separate days.”
Sigmoidal dose-response curves (IC50 curves) were determined using the ‘nonlinear regression (curve fit)’ model contained within the Prism 4 software package (GraphPad Software, Inc., La Jolla, Calif.) running on a personal computer. […] Data are expressed as relative fold change ±standard deviation. […]

[12] = PANC-1, MNF 1 μM 24 hours, medium replaced, then drug 0-10 μM 24 hours, read-out: calculated IC50 of chemotherapeutic drug, after MNF pretreatment
[13] = PANC-1, vehicle (0.01% DMSO) 24 hours, then drug 0-10 μM 24 hours, read-out: calculated IC50 of chemotherapeutic drug, without MNF pretreatment

For `COc1ccc(C[C@@H](C)NC[C@H](O)c2cc(O)cc(O)c2)c2ccccc12` [MNF, (R,R′)-4′-methoxy-1-naphthyl-fenoterol], the “expression of cancer biomarkers (EGFR, β-catenin, PKM2, cyclin D1, Pgp, BCRP, MRP1, MRP5)” value ([1]; PANC-1, MNF 10-1000 nM, 24 hours) was “dose-dependently reduces”, the “AM251-induced increase in BCRP expression” value [1] was “blocked” and the “nuclear pool of phosphoactive form of PKM2” value [2] was “markedly reduced”. The “constitutive and AM251-induced nuclear accumulation of HIF-1α and phosphoactive forms of PKM2 (Ser37) and β-catenin (Tyr333)” value [3] was “significantly abrogated”, the “nuclear pool of Pgp and BCRP” value [4] was “marked reduction” and the “effect on the growth of MCF-7 cells” value [5] was “no significant effect”. The “activating phosphorylation of AKT” value [6] was “significantly decreased”, the IC50 ([7]; PANC-1, MNF 0-10 μM, 24 hours, mean±SD, read-out: IC50, inhibition in cell growth) was 650 ± 250 nM and the “maximum reduction in cell growth” value ([7]; PANC-1, MNF 0-10 μM, 24 hours, p<0.001) was 42%. The “uptake and nuclear retention of doxorubicin” value [8] was “enhancement”, the IC50 ([9]; MDA-MB-231, MNF 24 hours, read-out: IC50, inhibition in cell growth) was 106 ± 3 nM and the “dose-dependent inhibition in cell growth” value ([9]; MDA-MB-231, MNF 24 hours) was 50%. For the same compound, the “uptake and nuclear retention of doxorubicin” value [10] was “enhanced uptake and nuclear retention”.
For `Cc1ccc(-c2n[nH]c3c2C(c2cccc(O)c2)N(c2ccc(C(=O)O)cc2)C3=O)cc1` (centres unmarked) [CID], the “induction of EGFR, BCRP, PKM2 by AM251” value ([1]; PANC-1, 1 μM pretreatment 30 minutes, then AM251 1 μM 24 hours) was “blocked”, the “basal levels of EGFR, BCRP, and PKM2 proteins” value ([1]; PANC-1, 1 μM, 24 hours) was “significantly reduced” and the “AM251-induced increase in BCRP expression” value [1] was “blocked”. For the same compound, the “nuclear pool of phosphoactive form of PKM2” value [2] was “markedly reduced”, the “constitutive and AM251-induced nuclear accumulation of HIF-1α and phosphoactive forms of PKM2 (Ser37) and β-catenin (Tyr333)” value [3] was “significantly abrogated” and the “activating phosphorylation of AKT” value [6] was “significantly decreased”.
With `Nc1ccn([C@@H]2O[C@H](CO)[C@@H](O)C2(F)F)c(=O)n1` [gemcitabine] the IC50 [7, 12] was 153 ± 3 nM, the IC50 [7, 13] was 487 ± 3 nM and the “fold decrease in calculated IC50 by MNF pretreatment” value ([7]; p<0.001) was roughly 3 fold.
With `COc1cccc2c1C(=O)c1c(O)c3c(c(O)c1C2=O)C[C@@](O)(C(=O)CO)C[C@@H]3O[C@H]1C[C@H](N)[C@H](O)[C@H](C)O1` [doxorubicin] the IC50 ([11]; MNF 0.01 μM 24 hours, then doxorubicin 24 hours, p<0.001, read-out: calculated IC50 of doxorubicin, after MNF pretreatment) was 1.1 ± 0.5 nM, the IC50 ([11]; doxorubicin 24 hours, read-out: calculated IC50 of doxorubicin, without MNF pretreatment) was 6 ± 0.8 nM and the IC50 [7, 12] was 51 ± 2 nM. The IC50 [7, 13] was 193 ± 4 nM, the “fold decrease in calculated IC50 by MNF pretreatment” value ([7]; p<0.001) was roughly 4 fold and the IC50 ([9]; MDA-MB-231, MNF 1 μM 24 hours, then doxorubicin 0-10 μM 24 hours, p<0.05, read-out: calculated IC50 of doxorubicin, after MNF pretreatment) was 255 ± 13 nM. For the same compound, the IC50 ([9]; MDA-MB-231, doxorubicin 0-10 μM 24 hours, read-out: calculated IC50 of doxorubicin, without MNF pretreatment) was 570 ± 14 nM.
